pEC50, pIC50: −log10 of the molar value.
Assays:
[1] = Clearance in human liver microsomes; assay type: ADME, microsome; conditions: read-out: CLH
[2] = Clearance in mouse liver microsomes; assay type: ADME, microsome; conditions: read-out: CLH
[3] = target: T1, Glucose-dependent insulinotropic receptor (Homo sapiens) (UniProt Q8TDV5); experiment: Agonist activity at human GPR119 expressed in CHOK1 cells co-expressing CRE-luciferase incubated for 4 hrs by luciferase reporter gene assay relative to 100 nM AR231453; assay type: functional, cell-based
T1 sequence (whole entry): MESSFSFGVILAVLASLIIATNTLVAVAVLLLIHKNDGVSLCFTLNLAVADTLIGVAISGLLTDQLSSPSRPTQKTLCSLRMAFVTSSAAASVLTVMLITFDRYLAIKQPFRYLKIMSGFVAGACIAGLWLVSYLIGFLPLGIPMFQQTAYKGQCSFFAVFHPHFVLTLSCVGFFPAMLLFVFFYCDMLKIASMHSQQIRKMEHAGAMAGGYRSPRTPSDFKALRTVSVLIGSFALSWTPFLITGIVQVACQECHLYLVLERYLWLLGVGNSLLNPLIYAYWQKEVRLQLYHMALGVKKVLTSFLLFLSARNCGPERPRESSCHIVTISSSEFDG

[4] = target: T2, Glucose-dependent insulinotropic receptor (Homo sapiens, UniProt Q8TDV5); experiment: Agonist activity at human GPR119 expressed in CHOK1 cells co-expressing CRE-luciferase incubated for 4 hrs by luciferase reporter gene assay; assay type: functional, cell-based; conditions: for pEC50: read-out: EC50
T2 sequence (Q8TDV5 whole entry): T1 sequence (whole entry)

[5] = Volume of distribution at steady state in mouse at 0.5 mg/kg, iv; assay type: ADME, organism-based; conditions: in vivo, read-out: Vdss
[6] = Cmax in mouse at 10 mg/kg, po; assay type: ADME, organism-based; design: dose 10 mg/kg, route oral; conditions: in vivo
[7] = Plasma clearance in mouse at 0.5 mg/kg, iv; assay type: ADME, organism-based
[8] = AUC in mouse at 10 mg/kg, po; assay type: ADME, organism-based; conditions: in vivo
[9] = Half life in mouse at 0.5 mg/kg, iv; assay type: ADME, organism-based; conditions: in vivo
[10] = Oral bioavailability in mouse at 10 mg/kg; assay type: ADME, organism-based; conditions: in vivo
CHO-K1 = experiment: Cytotoxicity in CHOK1 cells by CCK8 assay; assay type: cell-based; conditions: Cricetulus griseus
Mus musculus [11] = experiment: Reduction in blood glucose AUC in C57BL/6N mouse at 10 mg/kg dosed 25 mins before glucose challenge and measured over 120 mins post glucose […] by oral glucose tolerance test; assay type: functional; design: scale not given: the % may be the effect or the level left
[12] = target: T2, Glucose-dependent insulinotropic receptor; experiment: Agonist activity at human GPR119 expressed in HEK293 cells by luciferase reporter gene assay; assay type: cell-based
Mus musculus [13] = experiment: Reduction in blood glucose AUC in C57BL/6N mouse at 30 mg/kg dosed 25 mins before glucose challenge and measured over 120 mins post glucose […] by oral glucose tolerance test; assay type: functional; design: scale not given: the % may be the effect or the level left
[14] = Drug metabolism in mouse liver microsomes assessed as CYP450-mediated metabolism of ethyl group; assay type: ADME
[15] = Drug metabolism in human liver microsomes assessed as CYP450-mediated metabolism of ethyl group; assay type: ADME

Structure (SMILES) | microsomal CLint [1] [µL/min/mg] | microsomal CLint [2] [µL/min/mg] | Emax [3] [%] | pEC50 [4] | also measured
CC(=O)c1cnc(N2CCC(c3coc4c(N5CCc6cc(S(C)(=O)=O)ccc65)ncnc34)CC2)nc1 | 74 | 154 | 12 | 7.11 | 
Cc1cnc(N2CCC(c3coc4c(N5CCc6cc(S(C)(=O)=O)ccc65)ncnc34)CC2)nc1 | 349 | 145 | 159 | 6.60 | 
CS(=O)(=O)c1ccc2c(c1)CCN2c1ncnc2c(C3CCN(c4ncc(Cl)cn4)CC3)coc12 | 113 | 108 | 117 | 7.38 | Vd [5]: 2.3 L/kg; Cmax [6]: 2020 ng/mL; clearance [7]: 6.5 mL/min/kg; AUC [8]: 9390 ng·h/mL; half-life [9]: 5.1 h; bioavailability [10]: 37%; pIC50 (CHO-K1): < 5.00; Activity (Mus musculus [11]): 33%
CC(C)(C)OC(=O)N1CCC(c2coc3c(N4CCCc5cc(S(C)(=O)=O)ccc54)ncnc23)CC1 |  |  | 1 | 6.10 | 
COc1cnc(N2CCC(c3coc4c(N5CCc6cc(S(C)(=O)=O)ccc65)ncnc34)CC2)nc1 | 255 | 189 | 186 | 6.51 | 
CC(C)(C)OC(=O)N1CCC(n2nnc3c(Nc4ccc(S(C)(=O)=O)cc4F)ncnc32)CC1 |  |  |  |  | pEC50 [12]: 7.72
CC(C)(C)OC(=O)N1CCC(c2coc3c(N4CCc5cc(S(C)(=O)=O)ccc54)ncnc23)CC1 | 550 | 508 | 123 | 7.28 | 
CS(=O)(=O)c1ccc2c(c1)CCN2c1ncnc2c(C3CCN(c4ncc(F)cn4)CC3)coc12 | 257 | 154 | 229 | 6.70 | 
CC(C)(C)OC(=O)N1CCC(c2coc3c(N4c5ccc(S(C)(=O)=O)cc5CC4(C)C)ncnc23)CC1 |  |  |  |  | EC50 [4]: Not Active
CC(C)(C)OC(=O)N1CCC(c2csc3c(Nc4ccc(S(C)(=O)=O)cc4F)ncnc23)CC1 |  |  | 82 | 7.10 | 
Cn1cc(C2CCN(C(=O)OC(C)(C)C)CC2)c2ncnc(Nc3ccc(S(C)(=O)=O)cc3F)c21 |  |  | 3 | < 6.00 | 
CC(C)(C)OC(=O)N1CCC(c2c[nH]c3c(Nc4ccc(S(C)(=O)=O)cc4F)ncnc23)CC1 |  |  | 9 | < 6.00 | 
CC(O)c1cnc(N2CCC(c3coc4c(N5CCc6cc(S(C)(=O)=O)ccc65)ncnc34)CC2)nc1 (configuration not stated) | 102 | 66 | 33 | 6.23 | 
CS(=O)(=O)c1ccc2c(c1)CCN2c1ncnc2c(C3CCN(c4ncc(O)cn4)CC3)coc12 | 132 | 107 | 145 | 6.41 | 
CCCc1cnc(N2CCC(n3nnc4c(Nc5ccc(S(C)(=O)=O)cc5F)ncnc43)CC2)nc1 |  |  |  |  | pEC50 [12]: 7.09
CN(c1ccc(S(C)(=O)=O)cc1F)c1ncnc2c(C3CCN(C(=O)OC(C)(C)C)CC3)coc12 |  |  | 6 | < 6.00 | 
CC(C)(C)OC(=O)N1CCC(c2coc3c(N4CC(C)(C)c5cc(S(C)(=O)=O)ccc54)ncnc23)CC1 |  |  |  |  | EC50 [4]: Not Active
CC(C)(C)OC(=O)N1CCC(c2coc3c(Nc4ccc(S(C)(=O)=O)cc4F)ncnc23)CC1 |  |  | 123 | 6.89 | Activity (Mus musculus [13]): 13%
CC(C)(C)OC(=O)N1CCC(c2noc3c(Nc4ccc(S(C)(=O)=O)cc4F)ncnc23)CC1 |  |  | 137 | 6.45 | 
CCc1cnc(N2CCC(c3coc4c(N5CCc6cc(S(C)(=O)=O)ccc65)ncnc34)CC2)nc1 | 412 | 187 | 154 | 7.39 | Drug metabolism [14]: Metabolite_Detected; Drug metabolism [15]: Metabolite_Detected
CS(=O)(=O)c1ccc2c(c1)CCN2c1ncnc2c(C3CCN(c4ncccn4)CC3)coc12 |  |  | 196 | 6.29 | 
